What was measured:
[1] = system: respiratory syncytial virus Long strain; assay: Antiviral activity against respiratory syncytial virus in HEp-2 cells (MTT cell protection); type: cell-based
Protocol: The antiviral activity of these compounds against respiratory syncytial virus was determined in HEp-2 (ATCC CCL 23) cells that were seeded in 96 well microtiter plates at 1.5×10^4 cells/100 μL/well in DMEM (Dulbecco's Modified Eagle's Medium) supplemented with penicillin, streptomycin, glutamine, and 10% fetal bovine serum. The cells were incubated overnight at 37° C., the culture medium was removed, and cells were infected (100 μL volume in medium containing 2% fetal bovine serum) with respiratory syncytial virus Long strain at 5000 plaque forming units/mL. The compounds, 100 μL at appropriate dilution, were added to the cells 1 hour post infection. After incubation for 4 days at 37° C., the plates were stained with MTT solution (3-[4,5-dimethlythiazol-2-yl]-2,5-diphenyltetrazolium bromide) and incubated for 4 hours at 37° C. The media was aspirated from the cells and 100 μL/well of acidified isopropanol (per liter: 900 mL isopropanol, 100 mL Triton×100, and 4 mL conc. HCl) was added. Plates were incubated for 15 minutes at room temperature with shaking, and an optical density (OD 540) reading at 540 nanometer (nm) was obtained. The optical density reading is proportional to the number of viable cells. The increase in the number of viable cells reflects the protective, antiviral activity of the compound. […]

With `NC(=O)c1ncn([C@@H]2O[C@H](CO)[C@@H](O)[C@H]2O)n1` [Ribavirin] the cell protection ([1]; at 2.5 μg/mL (corresponding to 10.2 μM), HEp-2 cells, RSV Long strain) was 100% and the EC50 ([1]; human respiratory syncytial virus, HEp-2 cells infected with RSV Long strain, compound added 1 hour post infection, 4 days, read-out: EC50 (concentration that produces 50% cell protection)) was 3000 nM.
In the case of `O=c1[nH]c2ccccc2n1Cc1nc2ccccc2n1CCn1cnnn1` [Compound 184], the melting point is reported as > 200 °C.

Reference: patent US6506738B1, “Benzimidazolone antiviral agents” (Bristol-Myers Squibb Company, priority 2000, dated 2003)
